Source: US8399214B2 (Evonik Degussa GmbH, priority 2005, dated 2013)
“And” between values parts separate entries of the source, which are not always exact repeats. Identical values can stand only once. Like-named read-outs stand apart in the source and are kept apart here.

Experiments:
[1] = tested on: C. glutamicum OM246C (ΔmetE, ΔmetH); format: cell-based; details: XAD4, 24 hours at 30° C.
Procedure: To each test tube 100 μl of a sterile suspension of XAD4 in water (50% v/v) was added.

[2] = tested on: C. glutamicum OM174 (ΔmetF, ΔmetB, ΔmetY); details: DMDS 0.2%, XAD4, 60 hours at 30° C.
Procedure: A test tube experiment was performed with M2014 derivatives that contain different combinations of deletions of metY, metB, and metF. […] The inoculum was approximately 5×10^3 cells per tube. Cells were grown at 30° C. in a platform shaker for 60 hours, and cell densities were measured at OD600.

## CSSC [DMDS, dimethyl disulfide]
[1]; DMDS 0.1%
  Optical densities at 600 nm: 4.3 and 4.5
[1]; DMDS 0.2%
  Optical densities at 600 nm: 4.2 and 3.8
[1]; DMDS 0.3%
  Optical densities at 600 nm: 3.3 and 3.6
[1]; DMDS 0.4%
  Optical densities at 600 nm: 3.6 and 3.2
[1]; DMDS 0.5%
  Optical densities at 600 nm: 3.1 and 2.4
[2]
  OD600: 0.0
